Source: PubChem BioAssay AID179 (DTP/NCI, 2004)
Several values for one entry are separate records, joined by “and”; a condition that tells them apart may be missing. Equal values may be shown once. Activity calls are given as the source filed them.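 How the source made its calls: active means compounds giving half or more protection of infected cells from virus-caused growth loss, again on retest; inactive means the rest.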 *1 amine or outer side, *2 acyl side, *3 side chain or, on linkers, in order; H or OH if unused. Where a SMILES comes first, the peptide text is derived from it. Bridges are numbered along the chain shown (N, C = ends). [ ]: non-standard residue; d: D form. The star is where a group is joined. Fmoc = O=C(OCC1c2ccccc2-c2ccccc21)*; X2 = O=C(C(CCCCNO[*:3])N[*:1])[*:2]

Tested on: CEM cells HIV-1 protection, formazan growth assay
Experiment: NCI AIDS Antiviral Assay
Settings: for IC50: measured here: growth of uninfected CEM cells
Summary of the method: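 Screen of anti-HIV-1 activity in human CEM cells using a formazan-based growth measurement at five drug concentrations. Hits with 50% or greater protection were repeated, and confirmation required reproducible complete protection.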

Row | Compound | EC50 [µM] | IC50 | outcome
1 | Fc1ccc2c(c1)CN(CCN1COc3ccc(F)cc3C1)CO2 | > 8.13 | > 8.13 µM | –
2 | COc1ccc(-c2c(C#N)c(N)nc3c2CCS(=O)(=O)c2ccccc2-3)cc1 | > 200 | > 200 µM | –
3 | Cn1c(=N)n[n+]([O-])c2ccccc21 | > 200 | 3.47 µM and 4.07 µM | –
4 | CC(C)(CN1CCCCC1)C(/C=C/c1ccc(Cl)c(Cl)c1)=N\NC(=O)N/N=C(/C=C/c1ccc(Cl)c(Cl)c1)C(C)(C)CN1CCCCC1 | > 200 | 2.24 µM | –
5 | NC(=O)CNC(=O)C1CCCN1C(=O)C1CCCCNOC(=O)CCC(NC(=O)OCC2c3ccccc3-c3ccccc32)C(=O)NC(Cc2c[nH]c3ccccc23)C(=O)N1 (centres undefined) (Fmoc-EW[X2]PG-NH2; ester 1-3; configuration not given here) | 70.8 | > 100 µM | –
6 | O=c1c2nc(-c3ccccc3)oc2n(-c2ccccc2)c(=O)n1-c1ccccc1 | > 200 | 117 µM | –
7 | Cc1cc(C)n(-c2nc(-c3ccccc3)cs2)n1 | > 200 | 72.4 µM | –
8 | CCCCCCNC(=O)C1=C(C)NC(C)=C(C(=O)NCCCCCC)C1 | – | 89.1 µM | inactive
9 | Cc1ccc([C@H]2CC(=O)C[C@H](c3ccc(C)cc3)C23C(=O)c2ccccc2C3=O)cc1 | > 200 | > 200 µM | –
10 | Cc1nc2c(c(=O)[nH]1)S/C(=C(/C#N)c1nc3ccccc3[nH]1)N2c1ccccc1 | > 3.63 | > 3.63 µM | –
11 | Cc1ccc([B-]23OCC[N+]2(CNC(=O)C2=C(O)C4(O)C(=O)C5=C(O)c6c(O)cccc6C(C)(O)C5CC4C(N(C)C)C2=O)CCO3)cc1 (centres undefined) | > 53.7 | > 53.7 µM | –
12 | S=C(N/N=C\c1ccccn1)N(Cc1ccccn1)Cc1ccccn1 | > 2 | 0.955 µM | –
13 | CCOC(=O)c1sc2nc(SC)nc3c2c1NCN3C1CC1 | > 100 | > 100 µM | –
14 | COC(=O)C1=C2Nc3ccccc3[C@@]23CCN(Cc2ccccc2)C3C[C@H]1c1ccoc1 (some centres undefined) | > 29.5 | > 29.5 µM | –
15 | N#CC(NCCc1ccccc1)c1ccc(OCCCCCCCCCCOc2ccc(C(C#N)NCCc3ccccc3)cc2)cc1 (centres undefined) | > 50.1 | 22.9 µM | –
16 | CCOC(=O)NP(=O)(NNc1ccccc1)NNc1ccccc1 | – | – | inactive
17 | CCOC(=O)c1c(NS(=O)(=O)c2ccc(Br)cc2)sc2c1CCCC2 | – | – | inactive
18 | CC1COC(c2cn[nH]c2C(N)=O)C1O (centres undefined) | > 200 | > 200 µM | –
19 | COc1cc2c(cc1OC)[C@H]1C(=O)c3cc4c(cc3[C@H]1N(C)C2=O)OCO4 | > 37.2 | 0.479 µM | –
20 | CC12CCC(=O)N1c1ccccc1N2 (centres undefined) | > 501 | > 501 µM | –
21 | CCC12C=CCN3CC[C@]4(C(=C(C(=O)OC)[C@@H]1Nc1ncnc5c1ncn5C1OC(COC(C)=O)C(OC(C)=O)C1OC(C)=O)Nc1ccccc14)C32 (some centres undefined) | > 13.8 | 7.76 µM | –

Row | Compound | EC50 [µM] | IC50 | outcome
22 | Cc1ccc(/C(O)=C/C(=O)C(=O)NC23CC4CC(CC(C4)C2)C3)cc1 | > 200 | 77.6 µM | –
23 | CCc1cc(Cc2cc(CC)c(NC(=O)C(=O)Cc3ccccn3)c(CC)c2Cl)c(Cl)c(CC)c1NC(=O)C(=O)Cc1ccccn1 | > 72.4 | > 72.4 µM | –
24 | CCOc1ccccc1Nc1nc(C)c(C(=O)CC(=O)C(=O)Nc2ccccc2)s1 | > 158 | 57.5 µM | –
25 | O=C(Cn1c2ccc(Br)cc2c2nc3ccccc3nc21)NNC(=S)NC1CCCCC1 | > 200 | 36.3 µM | –
26 | CCN1CCCn2c(=S)[nH]c3cc(Br)cc1c32 | 57.5 | 97.7 µM | –
27 | CC1(C)C(=O)C(C)(C)C1=NN | > 83.2 | > 83.2 µM | –
28 | CNC(=O)CC1NC(=O)c2csc(n2)-c2ccc(-c3nc(C4=NC(C(=O)N5CCCC5C(N)=O)CO4)cs3)nc2-c2csc(n2)-c2csc(n2)C(C(C)C)NC(=O)CNC(=O)c2csc(n2)C(C(C)C)NC(=O)c2nc1sc2C (centres undefined) | > 10 | > 10 µM | –
29 | COc1ccc(Cc2c3cc(O)c(=O)cc-3ccn2C)cc1 | > 33.9 | 6.46 µM | –
30 | CC(Nc1ccc(S(=O)(=O)N=C(N)N)cc1)c1c2ccccc2nc2ccccc12 (centres undefined) | – | – | inactive
31 | COc1cccc(NC(=O)CC(=O)NNCC(=O)Nc2nnc(-c3ccc(N(CCC#N)S(=O)(=O)c4ccccc4)cc3)s2)c1 | > 77.6 | 66.1 µM | –
32 | CC(C)CC(NC(=O)OC(C)(C)C)C(=O)Nc1ccc(Nc2nc(F)nc(-c3c4ccccc4cn3C)n2)cc1 (centres undefined) | > 18.2 | 16.6 µM | –
33 | COP(=O)(OC)C1=c2c(C)noc2=C2C=COC2C1=O (centres undefined) | > 200 | > 200 µM | –
34 | Oc1ccc(Nc2nc(Cl)c3[nH]cnc3n2)cc1 | > 200 | 107 µM | –
35 | CCC1SC(C)C(=O)NC1=O (centres undefined) | > 661 | > 661 µM | –
36 | COC(=O)C1CCC(=O)N1CN(C(C)=O)c1cc(OC)ccc1OC (centres undefined) | > 200 | > 200 µM | –
37 | Cc1cnc(SCCN2CCN(C)CC2)nc1-c1cc2ccccc2s1 | > 646 | 1.29 µM | –
38 | O=c1[nH]nc(-c2ccccc2)n1/N=C/c1cccc([N+](=O)[O-])c1 | > 200 | 24.5 µM | –
39 | O=c1cc2cccccc-2o1 | > 603 | 295 µM | –
40 | O=C(O)c1cscc1Cc1cccs1 | > 200 | > 200 µM | –
41 | C[N+]1=C(c2ccc[nH]2)CC(C(=O)[O-])CC1 (centres undefined) | > 200 | > 200 µM | –
42 | O=C1C=C(N2CCN(CCO)CC2)C(=O)c2c(N3CCN(CCO)CC3)cc(N3CCN(CCO)CC3)nc21 | > 158 | > 158 µM | –

Row | Compound | EC50 [µM] | IC50 | outcome
43 | CCCC1OP(=O)(N2CC(C)N(P3(=O)OCC(CC)C(CCC)O3)CC2C)OCC1CC (centres undefined) | > 200 | > 200 µM | –
44 | O=c1[nH]cc(SSc2c[nH]c(=O)[nH]c2=O)c(=O)[nH]1 | 138 | > 200 µM | –
45 | CCOC(CNc1nn2c(C)nnc2s1)OCC | > 200 | > 200 µM | –
46 | COc1cc(/C=C/C(=O)c2sc(-n3nc(-c4ccccc4)cc3-c3ccccc3)nc2C)ccc1O | > 14.5 | > 14.5 µM | –
47 | O=c1cc(O)c2c(ccc3ccccc32)[nH]1 | > 200 | > 200 µM | –
48 | COc1ccc(COC2C(C/[N+]([O-])=N\Nc3ccc([N+](=O)[O-])cc3)OC3OC(C)(C)OC32)cc1 (centres undefined) | > 200 | 12.6 µM | –
49 | CC(C)(C)N/N=C(\C(=O)NC1=C(Cl)C(=O)c2ccccc2C1=O)C1C=CCS1(=O)=O (centres undefined) | > 209 | 12.9 µM | –
50 | CCCC(CCN)(CCN)[N+](=O)[O-] | > 200 | > 200 µM | –
51 | N#Cc1c(N2CCCC2)ncn(-c2ccccc2)c1=O | > 200 | > 200 µM | –
52 | Oc1c(Cl)cccc1SSc1cccc(Cl)c1O | > 200 | 34.7 µM | –
53 | O=C1CCCN1CC#CCN1C[C@@H]2C3CCC(C3)[C@@H]2C1 | > 200 | 170 µM | –
54 | CN(C(=O)C12C3C4C1C1C2C3C41C(=O)O)C(C)(C)C (centres undefined) | – | – | inactive
55 | COC(=O)C1=C(C(=O)OC)C2(C)Nc3ccccc3C2=C(c2ccccc2)C1 (centres undefined) | > 19.1 | > 19.1 µM | –
56 | CC(=O)c1ccc2c(c1)N(CCCN(C)C)c1ccccc1S2 | > 200 | 34.7 µM | –
57 | CCN(CC)CC(=O)NC1c2ccccc2Sc2c(C)cccc21 (centres undefined) | > 148 | 60.3 µM | –
58 | Nc1ncn2c(n1)nc1ccccc12 | > 200 | > 200 µM | –
59 | C/C(CN1C(=O)c2ccccc2C1=O)=N\NS(=O)(=O)c1ccc(C)cc1 | > 355 | > 355 µM | –
60 | Cc1cc(-c2cccs2)oc(=O)c1NC(=O)c1cnccn1 | > 200 | > 200 µM | –
61 | O=C(/C=C/c1ccc(Cl)cc1)Oc1ccc(/C=C2\CCCCC2=O)cc1 | > 200 | 42.7 µM | –
62 | Cc1ccccc1C(=O)N1CCN(C(=O)c2ccccc2C)CC1 | > 145 | > 145 µM | –
63 | CN(/N=C/c1cccc2cccnc12)c1ccc(Cl)cc1[N+](=O)[O-] | > 200 | 178 µM | –

Row | Compound | EC50 [µM] | IC50 | outcome
64 | OC(c1ccc(-c2ccccc2)cc1)C(F)(F)c1nc2ccccc2o1 (centres undefined) | > 200 | 34.7 µM | –
65 | COC(=O)NC1C(C)OC(OC2C/C=C(/C)C3C=CC4C(OC5CC(OC6CCC(OC7CC(O)C(OC8CCC(O)C(C)O8)C(C)O7)C(C)O6)C(OC(C)=O)C(C)O5)C(C)CC(C)C4C3(C)/C(O)=C3/C(=O)OC4(CC(C=O)=CC(O)C4/C=C\2C)C3=O)CC1(C)[N+](=O)[O-] (centres undefined) | > 186 | 0.191 µM | –
66 | Cc1cc(N(CCC#N)CCC#N)ccc1/C(N=Nc1ccccc1)=N\NC(=O)c1ccccc1 | > 200 | 13.8 µM | –
67 | Nc1ccn(C2OC(CO)C(O)C2Br)c(=O)n1 (centres undefined) | > 200 | 0.0631 µM | –
68 | CCOC(=O)C1CCC2c3[nH]c4ccccc4c3CCN2C1=O (centres undefined) | > 115 | > 115 µM | –
69 | CC(C(=O)O)C1Nc2ccccc2NC1=O (centres undefined) | > 200 | 83.2 µM | –
70 | CN1C(=O)C2CC(=O)N(Cc3ccccc3)C(=O)C2C1=O (centres undefined) | > 288 | > 288 µM | –
71 | Cc1cn(C2C=CC(CO)O2)c(=O)[nH]c1=O (centres undefined) | 1.62 | 186 µM | –
72 | O=C(Nc1nc2c(ncn2C2OC(CO)C(O)C2O)c(=O)[nH]1)c1ccccc1 (centres undefined) | > 646 | 251 µM | –
73 | CCC1(c2ccccc2)NC(=O)N(C)C1=O (centres undefined) | > 200 | > 200 µM | –
74 | CN(C)CCCNC(=O)c1cc(NC(=O)c2cc(NC(=O)c3cc(NC(=O)c4cccc(C(=O)Nc5cc(C(=O)Nc6cc(C(=O)Nc7cc(C(=O)NCCCN(C)C)n(C)c7)n(C)c6)n(C)c5)c4)cn3C)cn2C)cn1C | > 100 | > 100 µM | –
75 | CC(=O)O[C@@H]1CC[C@]2(C)C3CC[C@]4(C)C(C(C)CCc5nc6ccccc6n5C(C)=O)CCC4C3[C@H](OC(C)=O)C[C@@H]2C1 (some centres undefined) | > 50.1 | 3.16 µM | –
76 | O=C1OC(=O)c2c1nc1ccccc1c2-c1ccccc1 | – | – | inactive
77 | CN1C(=O)c2ccccc2C(O)(c2ccccc2)C1(O)c1ccccc1 (centres undefined) | > 200 | 64.6 µM | –
78 | O=c1[nH]nc(-c2ccccc2)n1/N=C/c1cccnc1 | > 200 | 61.7 µM | –
79 | CC(C)(C)c1ccc(SSc2ccc(C(C)(C)C)cc2)cc1 | > 200 | 12.3 µM | –
80 | Cc1cccc(C)c1NC(=O)CCCC(=O)C(C#N)c1ccc(Cl)cc1 (centres undefined) | > 135 | > 135 µM | –
81 | CC1(CO)C(=O)OC12CCCCC2 (centres undefined) | > 1350 | > 1350 µM | –
82 | CC(C)Oc1c(N(Cc2ccccc2)c2ccccc2C2SCCCS2)c(=O)c1=O | > 200 | 1.17 µM | –
